Values after ≈ are worked out from the molar mass of the structure shown.
Tests used:
human GPR40 receptor = human GPR40 receptor (Homo sapiens, UniProt O14842); test: IP1 accumulation measurements using the IPOne assay system; type: cell-based; details: 1321N1 cells stably expressing human GPR40 receptor, stimulation 1 h at 37° C.
Protocol: IP1 accumulation measurements using the IPOne assay system—1321N1 cells stably expressing human GPR40 receptor (Euroscreen, Belgium) are seeded 24 h before the assay in white 384-well plates in culture medium containing 10% FCS, 1% Na-Pyruvate and 400 μg/mL G418. IPi is assayed according to the manufacturer's description (Cisbio Bioassays, France). In brief, the assay is started by substitution of the culture medium by stimulation buffer (Hepes 10 mM, CaCl2 1 mM, MgCl2 0.5 mM, KCl 4.2 mM, NaCl 146 mM, glucose 5.5 mM and LiCl 50 mM, pH 7.4). Cells are stimulated for 1 h at 37° C., 5% CO2 by addition of the compounds that are diluted in stimulation buffer containing LiCl. Assays are stopped by adding HTRF-conjugates (IP1-d2 and Anti-IP1 cryptate Tb) and lysis buffer, provided by the manufacturer. After an incubation time of 1 h at room temperature plates are measured using an EnVision™, Perkin Elmer. The obtained fluorescence ratios at 665/615 […] are then used to calculate the pEC50 values using Assay Explorer 3.3 Software (Accelrys, Inc.) by interpolation using an IP1 reference curve and subsequent sigmoidal curve fitting allowing for a variable hill slope.

[1] = Chemical stability (degradation kinetics) at pH value of ca. 1.2; type: physicochemical; details: pH value of ca. 1.2 (acetonitrile/0.1 M aqueous HCl 2:3), 37° C., HPLC
Protocol: Degradation kinetics is used to simulate chemical stability of compounds in the acidic part of the gastro intestinal tract. […] Their application as medical drugs to treat human diseases is therefore less restricted and troublesome.
The chemical stability of the compounds of the invention at pH value of ca. 1.2 is determined as follows:
Compound is dissolved in an HPLC vial either in a mixture of acetonitrile/0.1 M aqueous HCl (2:3; pH ca. 1.2) or in a mixture of acetonitrile/Mcllvaine buffer pH 7.4 (2:3) to get a concentration of approximately 0.25 mg/ml. The vial was then transferred into an HPLC autosampler system and maintained at a temperature of 37° C. A first sample is taken and injected immediately into a standard HPLC system with a UV DAD detector. Further samples are injected after 2, 4, 6, 8 and 10 hours. Amount of degraded compound is measured by determining the recovery rate of compound [%] for each injection using an HPLC standard gradient method. Therefore the peak area of the main peak for the first injection (AUt0) is determined and set as 100%. Peak area of the main peak is determined also for the further injections (AUtn, n=2, 4, 6, 8, 10) and expressed as fraction of […] [%].

[2] = Aqueous solubility in buffer versus acetonitrile/water (1/1), LC-UV; type: physicochemical; details: kinetic from dmso stock, buffer pH 2.2, 24 h shaking, 2.5% DMSO, ">" if more than 90% dissolved
Protocol: The aqueous solubility of the compounds of the invention is determined by comparing the amount dissolved in buffer to the amount in an acetonitrile/water (1/1) solution. Starting from a 10 mM DMSO stock solution aliquots are diluted with acetonitrile/water (1/1) or buffer, respectively. After 24 h of shaking, the solutions are filtrated and analyzed by LC-UV. The amount dissolved in buffer is compared to the amount in the acetonitrile solution.
Solubility is usually being measured from 0.001 to 0.125 mg/mL at a DMSO concentration of 2.5%. If more than 90% of the compound is dissolved in buffer, the value is marked with “>”.

Chain of human GPR40 receptor (O14842 whole entry): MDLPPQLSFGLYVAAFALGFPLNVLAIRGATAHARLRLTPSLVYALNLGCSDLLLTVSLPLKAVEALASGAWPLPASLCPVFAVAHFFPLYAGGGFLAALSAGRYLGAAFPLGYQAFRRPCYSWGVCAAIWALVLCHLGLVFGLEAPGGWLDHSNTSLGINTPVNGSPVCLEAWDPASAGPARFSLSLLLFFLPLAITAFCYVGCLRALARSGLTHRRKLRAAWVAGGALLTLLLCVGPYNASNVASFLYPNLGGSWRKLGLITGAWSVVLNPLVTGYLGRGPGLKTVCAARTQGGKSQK

- EC50 (human GPR40 receptor): 20 nM
- Amount of degradation after 2 h [1]: <0.5%
- solubility at 24 h [2]: 102 µg/mL (≈ 216 µM)
Structure (SMILES): Cc1cc(-c2nnn(C)n2)cc(C)c1-c1ccc(F)c(CNc2ccc([C@H]3C[C@@H]3C(=O)O)cn2)c1 [Example 48]

From patent US10538490B2, “Benzylaminopyridylcyclopropanecarboxylic acids, pharmaceutical compositions and uses thereof” (Boehringer Ingelheim International GmbH, priority 2016, dated 2020)
